In patent publication US20260365653A1, “IRREVERSIBLE MUTEGFR INHIBITORS” (Bayer Aktiengesellschaft, priority 2022, published 2026):
“And” between values parts separate entries of the source, which are not always exact repeats. Equal values may be shown once.

What was measured:
BA/F3 (insSVD) cells = experiment: Ba/F3-EGFR-insSVD cell survival assay (Cell Titer-Glo); format: cell-based
Summary of the method: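 Ba/F3 cells stably expressing retroviral EGFR-insSVD or insSVD T790M, grown without IL-3 on 10 ng/ml EGF, 4000 cells/well. Compound pinned in, 48 h at 37° C. Viability by CellTiter-Glo luminescence.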

[1] = target: T1, mutEGFR (D770_N771insNPG, T790) (Homo sapiens, UniProt P00533, INS770NPG/T790M); experiment: mutEGFR (D770_N771insNPG, T790) kinase assay; format: biochemical
T1 construct: exact insNPG construct not described; in-house EGFR proteins were N-terminal GST fusions from baculovirus/insect cells (borders R669-A1210 given only for WT, insSVD, insASV)
T1 sequence (P00533 with tags, fused parts or gaps INS770NPG/T790M limits assumed): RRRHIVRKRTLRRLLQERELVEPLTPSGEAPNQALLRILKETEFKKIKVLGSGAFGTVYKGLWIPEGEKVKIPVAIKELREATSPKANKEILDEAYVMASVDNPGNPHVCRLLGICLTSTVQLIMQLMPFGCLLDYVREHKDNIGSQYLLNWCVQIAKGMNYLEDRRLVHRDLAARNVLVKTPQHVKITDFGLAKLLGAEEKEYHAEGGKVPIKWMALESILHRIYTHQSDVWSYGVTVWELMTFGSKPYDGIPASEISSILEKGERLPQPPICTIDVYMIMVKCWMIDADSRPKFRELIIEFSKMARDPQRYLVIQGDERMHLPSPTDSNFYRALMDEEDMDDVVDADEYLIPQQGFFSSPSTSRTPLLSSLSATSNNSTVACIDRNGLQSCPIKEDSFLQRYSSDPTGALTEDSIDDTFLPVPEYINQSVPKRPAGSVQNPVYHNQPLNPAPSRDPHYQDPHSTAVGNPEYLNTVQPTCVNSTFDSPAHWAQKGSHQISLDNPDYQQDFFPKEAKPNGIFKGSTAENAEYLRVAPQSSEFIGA
From the text: The different EGFR proteins used in the biochemical kinase activity inhibition assays were generated inhouse by expression in insect cells using Baculo Virus system and subsequent purification as described in the following paragraphs.
The cDNAs encoding the various protein sequences from human EGFR human (P00533) were optimized for expression in eukaryotic cells and synthesized by the GeneArt Technology at Life Technologies.

[2] = target: T2, mutEGFR (D770_N771insSVD) (Homo sapiens, UniProt P00533, DUP768-770); experiment: Exon20-Mutant-EGFR (D770_N771insSVD) kinase assay (TR-FRET); format: biochemical
T2 construct: GST-EGFR #3 (SVD between D770 and N771); made in house; host or cells: Sf9 insect cells (baculovirus)
T2 sequence (P00533 with tags, fused parts or gaps DUP768-770): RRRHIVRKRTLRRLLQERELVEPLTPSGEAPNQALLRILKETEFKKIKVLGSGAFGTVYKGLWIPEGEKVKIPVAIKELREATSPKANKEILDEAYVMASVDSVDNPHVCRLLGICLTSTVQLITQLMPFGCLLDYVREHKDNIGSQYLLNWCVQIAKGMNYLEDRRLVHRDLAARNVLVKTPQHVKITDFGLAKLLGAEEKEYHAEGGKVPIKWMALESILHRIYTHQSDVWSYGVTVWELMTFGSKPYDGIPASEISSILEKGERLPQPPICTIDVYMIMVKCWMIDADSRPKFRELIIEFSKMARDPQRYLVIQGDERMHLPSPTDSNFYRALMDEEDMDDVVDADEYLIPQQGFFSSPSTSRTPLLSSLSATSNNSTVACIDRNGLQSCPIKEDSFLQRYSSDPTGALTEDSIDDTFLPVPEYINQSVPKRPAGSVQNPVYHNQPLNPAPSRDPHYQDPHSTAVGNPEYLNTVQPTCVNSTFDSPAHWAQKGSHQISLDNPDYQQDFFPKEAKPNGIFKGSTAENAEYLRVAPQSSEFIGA

[3] = Table 3a, cell survival, Cell Titer-Glo, with 10 ng/ml EGF, without IL-3, 48 h
[4] = mutEGFR (D770_N771insSVD) kinase assay IC50, Table 2a, D770_N771insSVD, 2 mM ATP
[5] = Mus musculus, BaF3, 48 h, Table 3a, cell survival, Cell Titer-Glo, with 10 ng/ml EGF, without IL-3

Compound | IC50 ([1]; Table 2a, D770_N771insNPG) [nM] | IC50 [2, 4] | IC50 ([1]; Table 2b (from US Priority Patent Application), mutEGFR D770_N771insNPG) [nM] | IC50 ([2]; mutEGFR (D770_N771insSVD) kinase assay IC50, Table 2b (from US Priority Patent Application), mutEGFR D770_N771insSVD) | IC50 (BA/F3 (insSVD) cells; [3]) [nM] | IC50 (BA/F3 (insSVD) cells; [5]) [nM] | IC50 (BA/F3 (insSVD) cells; Mus musculus, BaF3, 48 h, Table 3b, Ba/F3 EGFR-insSVD) [nM]
Cc1c[nH]c2nccc(-c3c(-c4ccc(C(F)(F)F)cc4)nn4c3C(C)N(C(=O)/C=C/CN(C)C)CC4)c12 (single isomer, unassigned; isomer 1) [Example 265, (E)-4-(dimethylamino)-1-(4-methyl-3-(3-methyl-1H-pyrrolo[2,3-b]pyridin-4-yl)-2-(4-(trifluoromethyl)phenyl)-6,7-dihydropyrazolo[1,5-a]pyrazin-5(4H)-yl) but-2-en-1-one (isomer 1)] | 6300 | 4040 nM |  |  | 172 |  | 
C=CC(=O)N1CCn2nc(-c3ccc(Cl)cc3F)c(-c3ccncc3)c2C1C (single isomer, unassigned; isomer 1) [Example 278, 1-[2-(4-chloro-2-fluorophenyl)-4-methyl-3-(pyridin-4-yl)-6,7-dihydropyrazolo[1,5-a]pyrazin-5(4H)-yl]prop-2-en-1-one (isomer 1)] | 0.551 | 0.204 nM |  |  | 9.07 |  | 
CC1CN(C(=O)/C=C/CN(C)C)Cc2c(-c3ccncc3)c(-c3ccc(Cl)cc3F)nn21 (single isomer, unassigned; isomer 1) [Example 287, (2E)-1-[2-(4-chloro-2-fluorophenyl)-7-methyl-3-(pyridin-4-yl)-6,7-dihydropyrazolo[1,5-a]pyrazin-5(4H)-yl]-4-(dimethylamino)but-2-en-1-one (isomer 1)] | 0.415 | 0.22 nM |  |  |  | 37.3 | 
CC1c2c(-c3ccnc4[nH]ccc34)c(-c3ccc(C(F)(F)F)cc3)nn2CCN1C(=O)/C=C/CN(C)C (single isomer, unassigned; isomer 2) [Example 252, 4-(dimethylamino)-1-[4-methyl-3-(1H-pyrrolo[2,3-b]pyridin-4-yl)-2-[4-(trifluoromethyl)phenyl]-6,7-dihydropyrazolo[1,5-a]pyrazin-5(4H)-yl]but-2-en-1-one (isomer 2)] | 2840 | 11.7 nM |  |  |  | 180 | 
Cc1c[nH]c2nccc(-c3c(-c4ccc(C(F)(F)F)cc4)nn4c3C(C)N(C(=O)/C=C/CN(C)C)CC4)c12 (single isomer, unassigned; isomer 2) [Example 253, 4-(dimethylamino)-1-(4-methyl-3-(3-methyl-1H-pyrrolo[2,3-b]pyridin-4-yl)-2-(4-(trifluoromethyl)phenyl)-6,7-dihydropyrazolo[1,5-a]pyrazin-5(4H)-yl) but-2-en-1-one (isomer 2)] | 3950 | 247 nM |  |  | 490 |  | 
Cc1c[nH]c2nccc(-c3c(-c4ccc(F)cc4)nn4c3C(C)N(C(=O)/C=C/CN(C)C)CC4)c12 (single isomer, unassigned; isomer 2) [Example 256, (E)-4-(dimethylamino)-1-(2-(4-fluorophenyl)-4-methyl-3-(3-methyl-1H-pyrrolo[2,3-b]pyridin-4-yl)-6,7-dihydropyrazolo[1,5-a]pyrazin-5(4H)-yl) but-2-en-1-one (isomer 2)] | > 1630 | 7490 nM |  |  |  | 158 | 
CC1c2c(-c3ccnc4[nH]ccc34)c(-c3ccc(F)cc3)nn2CCN1C(=O)/C=C/CN(C)C (single isomer, unassigned; isomer 2) [Example 267, (E)-4-(dimethylamino)-1-(2-(4-fluorophenyl)-4-methyl-3-(1H-pyrrolo[2,3-b]pyridin-4-yl)-6,7-dihydropyrazolo[1,5-a]pyrazin-5(4H)-yl) but-2-en-1-one (isomer 2)] | 21.7 | 24.9 nM |  |  | 257 |  | 
C=CC(=O)N1Cc2c(-c3ccncc3)c(-c3ccc(OC)cc3)nn2C(C)C1 (single isomer, unassigned; isomer 2) [Example 275, 1-[2-(4-methoxyphenyl)-7-methyl-3-(pyridin-4-yl)-6,7-dihydropyrazolo[1,5-a]pyrazin-5(4H)-yl]prop-2-en-1-one (isomer 2)] | 1.22 | 0.476 nM |  |  | 16.8 |  | 
C=CC(=O)N1CCn2nc(-c3ccc(Cl)cc3F)c(-c3ccncc3)c2C1C (single isomer, unassigned; isomer 2) [Example 279, 1-[2-(4-chloro-2-fluorophenyl)-4-methyl-3-(pyridin-4-yl)-6,7-dihydropyrazolo[1,5-a]pyrazin-5(4H)-yl]prop-2-en-1-one (isomer 2)] | 62.2 | 50.6 nM |  |  | 429 |  | 
CC1c2c(-c3ccncc3)c(-c3ccc(Cl)cc3F)nn2CCN1C(=O)/C=C/CN(C)C (single isomer, unassigned; isomer 2) [Example 286, (2E)-1-[2-(4-chloro-2-fluorophenyl)-4-methyl-3-(pyridin-4-yl)-6,7-dihydropyrazolo[1,5-a]pyrazin-5(4H)-yl]-4-(dimethylamino)but-2-en-1-one (isomer 2)] | 95.7 | 71 nM |  |  | 843 |  | 

Second part, led by results:

IC50 ([1]; Table 2a, D770_N771insNPG) [nM] | IC50 [2, 4] | IC50 ([1]; Table 2b (from US Priority Patent Application), mutEGFR D770_N771insNPG) [nM] | IC50 ([2]; mutEGFR (D770_N771insSVD) kinase assay IC50, Table 2b (from US Priority Patent Application), mutEGFR D770_N771insSVD) | Compound | IC50 (BA/F3 (insSVD) cells; [3]) [nM] | IC50 (BA/F3 (insSVD) cells; [5]) [nM] | IC50 (BA/F3 (insSVD) cells; Mus musculus, BaF3, 48 h, Table 3b, Ba/F3 EGFR-insSVD) [nM]
446 | 940 nM |  |  | Cc1c[nH]c2nccc(-c3c(-c4ccc(F)cc4)nn4c3C(C)N(C(=O)/C=C/CN(C)C)CC4)c12 (single isomer, unassigned; isomer 1) [Example 268, (E)-4-(dimethylamino)-1-(2-(4-fluorophenyl)-4-methyl-3-(3-methyl-1H-pyrrolo[2,3-b]pyridin-4-yl)-6,7-dihydropyrazolo[1,5-a]pyrazin-5(4H)-yl) but-2-en-1-one (isomer 1)] | 279 |  | 
3.11 | 1.35 nM |  |  | C=CC(=O)N1Cc2c(-c3ccncc3)c(-c3ccc(OC)cc3)nn2C(C)C1 (single isomer, unassigned; isomer 1) [Example 274, 1-[2-(4-methoxyphenyl)-7-methyl-3-(pyridin-4-yl)-6,7-dihydropyrazolo[1,5-a]pyrazin-5(4H)-yl]prop-2-en-1-one (isomer 1)] | 34.1 |  | 
0.282 | 0.117 nM |  |  | C=CC(=O)N1Cc2c(-c3ccncc3)c(-c3ccc(Cl)cc3F)nn2C(C)C1 (single isomer, unassigned; isomer 1) [Example 282, 1-[2-(4-chloro-2-fluorophenyl)-7-methyl-3-(pyridin-4-yl)-6,7-dihydropyrazolo[1,5-a]pyrazin-5(4H)-yl]prop-2-en-1-one (isomer 1)] |  | 6.15 | 
0.644 | 0.232 nM |  |  | CC1c2c(-c3ccncc3)c(-c3ccc(Cl)cc3F)nn2CCN1C(=O)/C=C/CN(C)C (single isomer, unassigned; isomer 1) [Example 285, (2E)-1-[2-(4-chloro-2-fluorophenyl)-4-methyl-3-(pyridin-4-yl)-6,7-dihydropyrazolo[1,5-a]pyrazin-5(4H)-yl]-4-(dimethylamino)but-2-en-1-one (isomer 1)] | 42 |  | 
0.34 | 0.129 nM |  |  | C=CC(=O)N1C(C)c2c(-c3ccncc3)c(-c3ccc(Cl)cc3F)nn2C[C@@H]1C (single isomer, unassigned; isomer 1) [Example 292] | 4.08 |  | 
933 | 6.99 nM |  |  | C=CC(=O)N1CCn2nc(-c3ccc(C(F)(F)F)cc3)c(-c3ccnc4[nH]ccc34)c2C1C (single isomer, unassigned; isomer 2) [Example 247, 1-(4-methyl-3-(1H-pyrrolo[2,3-b]pyridin-4-yl)-2-(4-(trifluoromethyl)phenyl)-6,7-dihydropyrazolo[1,5-a]pyrazin-5(4H)-yl) prop-2-en-1-one (isomer 2)] |  | 134 | 
216 | 435 nM |  |  | C=CC(=O)N1CCn2nc(-c3ccc(F)cc3)c(-c3ccnc4[nH]cc(C)c34)c2C1C (single isomer, unassigned; isomer 2) [Example 250, 1-(2-(4-fluorophenyl)-4-methyl-3-(3-methyl-1H-pyrrolo[2,3-b]pyridin-4-yl)-6,7-dihydropyrazolo[1,5-a]pyrazin-5(4H)-yl) prop-2-en-1-one (isomer 2)] | 75.1 |  | 
7.3 | 6.5 nM |  |  | C=CC(=O)N1CCn2nc(-c3ccc(F)cc3)c(-c3ccnc4[nH]ccc34)c2C1C (single isomer, unassigned; isomer 2) [Example 261, 1-(2-(4-fluorophenyl)-4-methyl-3-(1H-pyrrolo[2,3-b]pyridin-4-yl)-6,7-dihydropyrazolo[1,5-a]pyrazin-5(4H)-yl) prop-2-en-1-one (isomer 2)] | 111 |  | 
0.146 | 0.105 nM and < 0.0725 nM | 0.146 | < 0.0725 nM and 0.105 nM | C=CC(=O)N1CCn2nc(-c3ccc(Cl)c(C)c3)c(-c3ccncc3)c2C1 [Example 2, 1-[2-(4-chloro-3-methylphenyl)-3-(pyridin-4-yl)-6,7-dihydropyrazolo[1,5-a]pyrazin-5(4H)-yl]prop-2-en-1-one] |  | 20.6 | 20.6
